Reference: paper PMC11992618, “Development of cyclopeptide inhibitors specifically disrupting FXR–coactivator interaction in the intestine as a novel therapeutic strategy for MASH” (Life Metabolism, 2025)

How the values were obtained:
[1] = biological target: T1, human FXR alpha (hFXRα)-LBD / SRC2-3 peptide (Homo sapiens, UniProt Q96RI1); assay: AlphaScreen assay, recruitment of coactivator peptide SRC2-3 to His-hFXRα-LBD; type: biochemical
T1 construct: 100 nmol/L 6*His-hFXRα-LBD and 100 nmol/L biotinylated co-factor peptide
T1 sequence (Q96RI1 262-486 limits assumed): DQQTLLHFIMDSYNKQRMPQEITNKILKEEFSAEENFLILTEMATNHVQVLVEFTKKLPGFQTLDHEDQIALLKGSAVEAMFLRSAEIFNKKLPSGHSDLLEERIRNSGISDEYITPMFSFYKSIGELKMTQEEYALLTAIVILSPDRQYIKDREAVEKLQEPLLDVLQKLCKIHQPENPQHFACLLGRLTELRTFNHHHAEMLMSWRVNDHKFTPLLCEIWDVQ
Description: (§1) An AlphaScreen technology-based assay was performed according to the manufacturer’s instructions with a minor revision. Briefly, the experiment was conducted with compounds at the indicated concentrations, 100 nmol/L 6*His-hFXRα-LBD and 100 nmol/L biotinylated co-factor peptide in the buffer containing 50 mmol/L MOPS, 50 μmol/L CHAPS, 50 mmol/L NaF, and 0.1 mg/mL BSA, pH 7.4. The mixture was incubated with 50 μg/mL nickel acceptor beads and 50 μg/mL streptavidin donor beads in a 384-well plate under green light in the dark at room temperature, before conducting fluorescence measurement with excitation at 680 nm and emission at 550 nm on an Envision microplate analyzer (PE 2102-8340, PerkinElmer Life Sciences).

[2] = biological target: T2, human FXR alpha (hFXRα)-LBD / NcoR2 peptide (Homo sapiens, UniProt Q96RI1); assay: AlphaScreen assay, recruitment of corepressor peptide NcoR2 to His-hFXRα-LBD; type: biochemical; conditions: DC646 at 11 μmol/L, Ivermectin 5 μmol/L
T2 construct: 100 nmol/L 6*His-hFXRα-LBD and 100 nmol/L biotinylated co-factor peptide
T2 sequence (Q96RI1 262-486 limits assumed): T1 sequence (Q96RI1 262-486 limits assumed)
Description: as §1

[3] = system: Pxr, Vdr and Nr1i3 target gene expression in organoids; assay: PXR, VDR and CAR downstream gene expression in organoids; type: cell-based, mouse; conditions: 24 h
Text: Intestinal crypts were isolated from 6- to 8-week-old C57BL/6 mice and Fxr^△IE mice as previously described with minor revision. Briefly, the abdomen of the mouse was dissected, and the small intestine was isolated with fats removed. The isolated intestine was flushed with cold PBS to remove the luminal contents. Then, the intestine was opened longitudinally and washed three times with PBS gently. The tissue was cut into small fragments (2 mm^2) and further washed three times with cold PBS gently, followed by incubation with 5 mmol/L EDTA-PBS at 4°C. After 40 min, the fragments were vortexed vigorously, and then the suspension was filtered through a […] and centrifuged at 50 g for 10 min. The crypts were counted and plated with Matrigel (1:1, 25 μL) and 500 μL IntestiCult Organoid Growth Medium with Supplements 1 and 2. The isolated crypts were cultured for 3–5 days and treated with indicated chemicals as described.
The intestine and liver were frozen in liquid nitrogen and stored at −80°C. RNA was extracted, and complementary DNA was synthesized from 1 μg total RNA. RT-qPCR was performed on a Bio-Rad CFX384 Touch detection system (Bio-Rad). […] RNA levels were analyzed by 2-^ΔΔCt, normalized to 18S ribosomal RNA and expressed as fold change relative to the control group.
Supplementary Figure S7 Selectivity of DC646. […] Data are presented as the mean ± SEM and analyzed by unpaired t-test.

[4] = system: intestinal and hepatic FXR signaling; assay: In vivo intestinal FXR antagonism experiment (TCA-induced); set-up: species or system mouse; conditions: mice, oral 20 mg/kg with TCA 400 mg/kg/day, 3 doses
Description: For the in vivo intestinal FXR antagonism experiment, after a 3-day treatment with an antibiotic cocktail (1 mg/mL neomycin, 1 mg/mL streptomycin, and 1 mg/mL bacitracin) in drinking water, 8- to 10-week-old male C57BL/6 J mice were orally administered with vehicle or TCA (400 mg/kg/day), TCA combined with GUDCA (50 mg/kg), or TCA combined with DC646 (20 mg/kg) once a day. The serum, liver, and intestine were collected 2 h after the third dosing.
(§2) The intestine and liver were frozen in liquid nitrogen and stored at −80°C. RNA was extracted, and complementary DNA was synthesized from 1 μg total RNA. RT-qPCR was performed on a Bio-Rad CFX384 Touch detection system (Bio-Rad). The primer sequences for RT-qPCR are shown in Supplementary Table S5. RNA levels were analyzed by 2-^ΔΔCt, normalized to 18S ribosomal RNA and expressed as fold change relative to the control group.

[5] = system: intestinal FXR-ceramide axis and GLP-1; assay: HFD-fed mice, ileal FXR signaling, ceramides and serum GLP-1; type: in vivo, mouse; conditions: oral 10 and 30 mg/kg
Description: Mice were fasted for 6 h and gavaged with a single dose of 25 mg/kg sitagliptin, followed by 2 g/kg glucose 45 min later. Blood samples were collected 15 min after glucose administration, and GLP-1 was measured using active GLP-1 kits.
as §2
For ileal lipidomics, samples were homogenized, extracted with chloroform, and prepared for analysis. Separation was achieved using an Acquity UPLC CSH C18 column, and analysis was conducted via liquid chromatography electrospray ionization tandem mass spectrometry (LC-ESI-MS/MS). Mobile phases were comprised with acetonitrile–water and isopropanol/acetonitrile solutions, both containing 10 mmol/L ammonium acetate and 0.1% formic acid.
Supplementary Figure S9 DC646 antagonizes intestinal FXR, thereby reducing ceramide production and inducing GLP-1 production. (a) Relative mRNA expression of ileal FXR signaling. (b) Ileal ceramide levels (the data are normalized and centralized). (c) Relative mRNA expression of ileal ceramide-synthesis related genes. (d) Serum GLP-1 levels. HFD-fed mice were gavaged with vehicle or 10 mg/kg or 30 mg/kg DC646. n = 8 in each group. Data are presented as the mean ± SEM and analyzed by one-way ANOVA with Dunnett’s post hoc test. ^*P < 0.05, ^**P < 0.01, and ^***P < 0.001, versus HFD + Vehicle group.

Subacute toxicity test = type: in vivo, mouse
Description: For the subacute toxicity test of DC646, oral injection of vehicle, 20 mg/kg, 100 mg/kg, or 200 mg/kg DC646 to C57BL/6 male mice was carried out for 7 days. During the week, the body weight and food/water intake were monitored every day. The serum, liver, kidneys, brain, heart, lungs, spleen, testicle, and epididymis were weighed and collected 2 h after the final dosing.
Supplementary Figure S10 Subacute toxicity test of DC646 at 20 mg/kg, 100 mg/kg, or 200 mg/kg. (a) Strategy of animal experiment. (b) Body weight. (c) Food intake. (d) Water intake. (e) Representative pictures of organ morphologies. (f) 1/3 Intestine length and colon length. (g) Organ weight. (h and i) Serum ALT (h) and AST(i) levels. (j) H&E staining of heart, liver, spleen, lung, and kidney. n = 5 in each group. Data are presented as the mean ± SEM and analyzed by one-way ANOVA with Dunnett’s post hoc test.

[6] = C57BL/6 male mice, oral 20, 100, 200 mg/kg, 7 days

For `CC(C)C[C@@H]1NC(=O)[C@@H]2CN(CCO2)c2cccc3c2c(cn3[Si](C(C)C)(C(C)C)C(C)C)C[C@H](NS(=O)(=O)C(F)(F)F)C(=O)OCCCCNC(=O)[C@H](CC(C)C)NC(=O)[C@@H]2CN(CCO2)c2cccc3c2c(cn3[Si](C(C)C)(C(C)C)C(C)C)C[C@H](NS(=O)(=O)C(F)(F)F)C(=O)OCCCCNC1=O` [DC646, N,N'-((1^2R,1^4S,16^2R,16^4S,4R,13R,19R,28R)-13,28-diisobutyl-5,12,15,20,27,30-hexaoxo-2^1,17^1-bis(triisopropylsilyl)-2^1H,17^1H-6,21-dioxa-11,14,26,29-tetraaza-1(4,2),16(2,4)-dimorpholina-2,17(4,3)-diindolacyclotriacontaphane-4,19-diyl)bis(1,1,1-trifluoromethanesulfonamide)], the “Agonistic activity (SRC2-3 recruitment, compound alone)” value ([1]; DC646 alone, Fig. 2e) was “no agonistic activity”, the “Disruption of hFXRα-LBD-SRC2-3 interaction induced by Ivermectin” value ([1]; DC646 at 11 μmol/L, Ivermectin 5 μmol/L) was “competitively disrupted” and the IC50 ([1]; IC50, DC646 combined with CDCA, adding order: DC646 combined with CDCA, Fig. 4b) was 12.2 µM. For the same molecule, the IC50 ([1]; IC50 in recruiting the SRC2-3 peptide in the presence of CDCA, in the presence of CDCA (50 μmol/L), Fig. 2f) was 8.86 µM, the “Effect on CDCA agonism when adding DC646 before CDCA” value ([1]; adding order: CDCA after DC646) was “completely blunted the agonism of CDCA” and the “Antagonism when adding DC646 after CDCA” value ([1]; adding order: DC646 after CDCA) was “no antagonism”. The “Disruption of hFXRα-LBD-NcoR2 interaction induced by Ivermectin” value [2] was “competitively disrupted”, the “Pxr, Vdr and Nr1i3 target gene expression” value [3] was “no significant impact” and the “Hepatic FXR signaling” value [4] was “not hepatic FXR signaling”. The “mRNA expression levels of TCA-induced FXR target genes Shp and Fgf15 (intestine)” value [4] was “decreased”, the “Ceramide levels in the ileum” value [5] was “reduced” and the “Serum GLP-1 levels” value [5] was “markedly increased”. The “FXR signaling in the ileum (mRNA levels of Shp and Fgf15)” value ([5]; dose-dependent) was “repressed”, the “Tolerated dose over minimum effective dose” value (Subacute toxicity test; 200 mg/kg versus minimum effective dose) was “more than 20 folds” and the Food/water intake (Subacute toxicity test; C57BL/6 male mice, oral 200 mg/kg, 7 days, normal body weight) was “mildly decreased”. The “Liver injury indicated by serum ALT and AST” value (Subacute toxicity test; [6]) was “did not cause liver injury”, the “Organ morphology, small intestine and colon length, organ weight” value (Subacute toxicity test; [6]) was “no difference” and the “Body weight and food/water intake” value (Subacute toxicity test; C57BL/6 male mice, oral 20 and 100 mg/kg, 7 days) was “did not affect”. For the same molecule, the MTD at 168 h (Subacute toxicity test; mouse, in vivo, C57BL/6 male mice, oral, 7 days, highest dosage tested, read-out: Highest dosage with good tolerance) was 200 mg/kg.
